Like-named read-outs stand apart in the source and are kept apart here.
Legend:
Assay type in all cases: cell-based
H358 cells = experiment: H358 proliferation assay (CellTiter-Glo); conditions: 120 h incubation, read-out: IC50 (nM), inhibitory activity against H358 cell proliferation
Description: The inhibitory activity of the compounds of the present disclosure against H358 cell proliferation was measured. Below is a brief description of the experimental method: H358 cells (ATCC, CRL-5807) were cultured in RPMI1640 medium (Hyclone, SH30809.01) containing 10% fetal bovine serum (Corning, 35-076-CV) (i.e., complete medium). On the first day of the experiment, H358 cells were seeded into a 96-well plate at a density of 1200 cells/well using complete medium, with 100 μL of cell suspension per well, and the plate was incubated overnight in a 37° C., 5% CO2 cell incubator. On the second day, the test compounds, prepared in complete medium and serially diluted, were added at 10 μL/well. The final concentrations of the compounds were 9 concentration points obtained by a 5-fold serial dilution from 10 μM. A blank control containing 0.5% DMSO was set up. The plate was incubated for 120 h in a 37° C., 5% CO2 cell incubator. On the seventh day, the 96-well cell plate was removed from the incubator, and CellTiter-Glo® Luminescent Cell Viability Assay (Promega, G7573) was added at 50 μL/well. After 10 min of room temperature incubation, luminescence signals were measured using a multifunctional microplate reader (PerkinElmer, EnVision® 2105). The IC50 values for the inhibitory activity of the compounds were calculated using Graphpad Prism software.

MIA PaCa-2 cells = experiment: MIA PaCa-2 cell proliferation assay (CellTiter-Glo); conditions: 72 h incubation, read-out: IC50 (nM), inhibitory activity against MIA PaCa-2 cell proliferation
Description: The inhibitory activity of the compounds of the present disclosure against MIA PaCa-2 cell proliferation was measured. Below is a brief description of the experimental method:
MIA PaCa-2 cells (ATCC, CRL-1420) were cultured in DMEM/HIGH GLUCOSE medium (GE, SH30243.01) containing 10% fetal bovine serum (Corning, 35-076-CV) and 2.5% horse serum (Beyotime Biological Tech., C0262) (i.e., complete medium). On the first day of the experiment, MIA PaCa-2 cells were seeded into a 96-well plate at a density of 500 cells/well using complete medium, with 90 µL of cell suspension per well, and the plate was incubated overnight in a 37° C., 5% CO2 cell incubator. On the second day, the test compounds, prepared in complete medium and serially diluted, were added at 10 μL/well. The final concentrations of the compounds were 9 concentration points obtained by a 5-fold serial dilution from 10 μM. A blank control containing 0.5% DMSO was set up. The plate was incubated for 72 h in a 37° C., 5% CO2 cell incubator. On the fifth day, the 96-well cell plate was removed from the incubator, and CellTiter-Glo® Luminescent Cell Viability Assay (Promega, G7573) was added at 50 μL/well. After 10 min of room temperature incubation, luminescence signals were measured using a multifunctional microplate reader (PerkinElmer, EnVision2015). The IC50 values for the inhibitory activity of the compounds were calculated using Graphpad Prism software.

[1] = system: ERK phosphorylation in H358 cells; experiment: H358 cell ERK phosphorylation inhibition assay (HTRF pERK/total ERK); conditions: 3 h incubation, ratio of pERK/total ERK, read-out: IC50 (nM), inhibitory effects on ERK phosphorylation in H358 cells
Description: The inhibitory effects of the compounds of the present disclosure on ERK phosphorylation in H358 cells were measured. Below is a brief description of the experimental method: H358 cells (ATCC, CRL-5807) were cultured in RPMI1640 medium (Hyclone, SH30809.01) containing 10% fetal bovine serum (Corning, 35-076-CV) (i.e., complete medium). On the first day of the experiment, H358 cells were seeded into a 96-well plate at a density of 25,000 cells/well using complete medium, with 190 μL of cell suspension per well, and the plate was incubated overnight in a 37° C., 5% CO2 cell incubator. On the second day, the test compounds, prepared in complete medium and serially diluted, were added at 10 μL/well. The final concentrations of the compounds were 9 concentration points obtained by a 6-fold serial dilution from 10 μM. A blank control containing 0.5% DMSO was set up. The plate was incubated for 3 h in a 37° C., 5% CO2 cell incubator. After 3 h, the 96-well cell culture plate was removed from the incubator, and the culture medium was pipetted off. PBS (Shanghai BasalMedia Technologies Co., Ltd., B320) was added at 200 μL/well for a single wash. PBS was pipetted off, and lysis buffer (Cisbio, 64KL1FDF) containing a blocking agent (Cisbio, 64KB1AAC) was added at 50 μL/well. The plate was incubated on a shaker for 30 min at room temperature to lyse the cells. After lysis, the lysates were well mixed by pipetting, and 16 μL of lysate was transferred from each well to two HTRF 96-well assay plates (Cisbio, 66PL96100). Subsequently, 4 μL of a premixed phospho-ERK1/2 antibody solution (Cisbio, 64AERPEG) or 4 μL of a premixed total-ERK1/2 antibody solution (Cisbio, 64NRKPEG) was added to each of the plates. The plates were sealed with a plate sealer film, centrifuged for 1 min in a microplate centrifuge, and incubated overnight at room temperature in the dark. On the third day, fluorescence values at an excitation wavelength of 337 nm and emission wavelengths of 665 nm and 620 nm were measured using a PHERAstar multifunctional microplate reader (BMG Labtech, PHERAstar FS). The IC50 values for the inhibitory activity of the compounds were calculated using Graphpad Prism software, based on the compound concentration and the ratio of pERK/total ERK.

Row | SMILES | IC50 (H358 cells) | IC50 (MIA PaCa-2 cells) | IC50 [1] | IC50 (H358 cells; Homo sapiens, NCI-H358, 120 h) | IC50 (MIA PaCa-2 cells; Homo sapiens, MIA PaCa-2, 72 h) | IC50 ([1]; Homo sapiens, NCI-H358, 3 h)
1 | C=CC(=O)N1CCN2C(=O)c3cc(F)c(-c4ccc(F)c5sc(N)c(C#N)c45)c4cnn(c34)CC[C@H]2C1 (atropisomer, axis not shown) [Example 1-P1, (R)-4-((S)-10-Acryloyl-2-fluoro-14-oxo-8,8a,9,10,11,12-hexahydro-7H,14H-pyrazino[1′,2′:5,6][1,5]diazocino[3,2,1-hi]indazol-3-yl)-2-amino-7-fluorobenzo[b]thiophene-3-carbonitrile] | 12 nM | 2.79 nM | 1.33 nM | – | – | –
2 | C=CC(=O)N1CCN2C(=O)c3cc(F)c(-c4ccc(F)c5sc(N)c(C#N)c45)c4cnn(c34)CC[C@H]2C1 (atropisomer, axis not shown) [Example 1-P2, (S)-4-((S)-10-Acryloyl-2-fluoro-14-oxo-8,8a,9,10,11,12-hexahydro-7H,14H-pyrazino[1′,2′:5,6][1,5]diazocino[3,2,1-hi]indazol-3-yl)-2-amino-7-fluorobenzo[b]thiophene-3-carbonitrile] | 0.93 nM | 0.4 nM | 0.07 nM | – | – | –
3 | C=C(F)C(=O)N1CCN2C(=O)c3cc(F)c(-c4ccc(F)c5sc(N)c(C#N)c45)c4cnn(c34)CC[C@H]2C1 (atropisomer, axis not shown) [Example 6-P1, (R)-2-Amino-7-fluoro-4-((S)-2-fluoro-10-(2-fluoroacryloyl)-14-oxo-8,8a,9,10,11,12-hexahydro-7H,14H-pyrazino[1′,2′:5,6][1,5]diazocino[3,2,1-hi]indazol-3-yl)benzo[b]thiophene-3-carbonitrile] | 9.75 nM | 13.9 nM | 1.45 nM | – | – | –
4 | C=C(F)C(=O)N1CCN2C(=O)c3cc(F)c(-c4ccc(F)c5sc(N)c(C#N)c45)c4cnn(c34)CC[C@H]2C1 (atropisomer, axis not shown) [Example 6-P2, (S)-2-Amino-7-fluoro-4-((S)-2-fluoro-10-(2-fluoroacryloyl)-14-oxo-8,8a,9,10,11,12-hexahydro-7H,14H-pyrazino[1′,2′:5,6][1,5]diazocino[3,2,1-hi]indazol-3-yl)benzo[b]thiophene-3-carbonitrile] | – | 5.39 nM | 0.35 nM | 5.73 nM | – | –
5 | C=CC(=O)N1CCN2C(=O)c3cc(F)c(-c4ccc(F)c5sc(N)c(C#N)c45)c4c(Cl)nn(c34)CC[C@H]2C1 (atropisomer, axis not shown) [Example 7-P2, (S)-4-((S)-10-Acryloyl-4-chloro-2-fluoro-14-oxo-8,8a,9,10,11,12-hexahydro-7H,14H-pyrazino[1′,2′:5,6][1,5]diazocino[3,2,1-hi]indazol-3-yl)-2-amino-7-fluorobenzo[b]thiophene-3-carbonitrile] | – | – | – | 0.74 nM | 0.28 nM | 0.13 nM
6 | C=CC(=O)N1CCN2C(=O)c3cc(F)c(-c4ccc(F)c5sc(N)c(C#N)c45)c4c(F)nn(c34)CC[C@H]2C1 (atropisomer, axis not shown) [Example 8-P2, (S)-4-((S)-10-Acryloyl-2,4-difluoro-14-oxo-8,8a,9,10,11,12-hexahydro-7H,14H-pyrazino[1′,2′:5][1,5]diazocino[3,2,1-hi]indazol-3-yl)-2-amino-7-fluorobenzo[b]thiophene-3-carbonitrile] | – | – | – | 0.84 nM | 0.19 nM | 0.16 nM
7 | C=CC(=O)N1CCN2C(=O)c3cc(F)c(-c4ccc(F)c5sc(N)c(C#N)c45)c4c(C)nn(c34)CC[C@H]2C1 (atropisomer, axis not shown) [Example 9-P1, (R)-4-((S)-10-Acryloyl-2-fluoro-4-methyl-14-oxo-8,8a,9,10,11,12-hexahydro-7H,14H-pyrazino[1′,2′:5,6][1,5]diazocino[3,2,1-hi]indazol-3-yl)-2-amino-7-fluorobenzo[b]thiophene-3-carbonitrile] | – | – | 32.5 nM | – | – | –
8 | C=CC(=O)N1CCN2C(=O)c3cc(F)c(-c4ccc(F)c5sc(N)c(C#N)c45)c4c(C)nn(c34)CC[C@H]2C1 (atropisomer, axis not shown) [Example 9-P2, (S)-4-((S)-10-Acryloyl-2-fluoro-4-methyl-14-oxo-8,8a,9,10,11,12-hexahydro-7H,14H-pyrazino[1′,2′:5,6][1,5]diazocino[3,2,1-hi]indazol-3-yl)-2-amino-7-fluorobenzo[b]thiophene-3-carbonitrile] | – | – | 0.06 nM | 0.52 nM | 0.37 nM | –
9 | C=CC(=O)N1CCN2C(=O)c3cc(F)c(-c4ccc(F)c5sc(N)c(C#N)c45)c4cnn(c34)CC[C@@H]2C1 (atropisomer, axis not shown) [Example 12-P2, (S)-4-((R)-10-Acryloyl-2-fluoro-14-oxo-8,8a,9,10,11,12-hexahydro-7H,14H-pyrazino[1′,2′:5,6][1,5]diazocino[3,2,1-hi]indazol-3-yl)-2-amino-7-fluorobenzo[b]thiophene-3-carbonitrile] | – | – | – | – | 35.3 nM | 11.3 nM
10 | C=CC(=O)N1CCN2C(=O)c3cc(F)c(-c4ccc(F)c5sc(N)nc45)c4ccn(c34)CC[C@H]2C1 [Example 3, (8aS)-10-Acryloyl-3-(-2-amino-7-fluorobenzo[d]thiazol-4-yl)-2-fluoro-8,8a,9,10,11,12-hexahydro-7H,14H-pyrazino[1′,2′:5,6][1,5]diazocino[3,2,1-hi]indol-14-one] | – | – | – | – | – | 23.7 nM
11 | C=C(F)C(=O)N1CCN2C(=O)c3cc(F)c(-c4ccc(F)c5sc(N)c(C#N)c45)c4ccn(c34)CC[C@H]2C1 [Example 5, 2-Amino-7-fluoro-4-((S)-2-fluoro-10-(2-fluoroacryloyl)-14-oxo-8,8a,9,10,11,12-hexahydro-7H,14H-pyrazino[1′,2′:5,6][1,5]diazocino[3,2,1-hi]indol-3-yl)benzo[b]thiophene-3-carbonitrile] | – | – | – | – | – | 36.2 nM
12 | C=CC(=O)N1CCN2C(=O)c3cc(F)c(-c4ccc(F)c5sc(N)c(C#N)c45)c4cnn(c34)C[C@H]2C1 [Example 14, 4-((R)-10-Acryloyl-4-fluoro-6-oxo-8,9,10,11,11a,12-hexahydro-6H-pyrazino[2′,1′:3,4][1,4]diazepino[6,7,1-hi]indazol-3-yl)-2-amino-7-fluorobenzo[b]thiophene-3-carbonitrile] | – | – | – | – | 39.6 nM | 1.35 nM
